Reference: US20240158446A1, “CYCLIC COMPOUND HAVING SELECTIVE INHIBITORY ACTION ON KRAS OVER HRAS AND NRAS” (CHUGAI SEIYAKU KABUSHIKI KAISHA, priority 2021, published 2024)

Experiments:
[1] = target: GDP-bound KRAS wild-type protein (Homo sapiens, UniProt P01116); experiment: Binding to KRAS by surface plasmon resonance (SPR), Single Cycle Kinetics; details: SPR, Single Cycle Kinetics, GDP-bound KRAS wild-type protein; read-out: KRAS KD
[2] = target: GDP-bound HRAS wild-type protein (Homo sapiens, UniProt P01112); experiment: Binding to HRAS by surface plasmon resonance (SPR), Single Cycle Kinetics; details: SPR, GDP-bound HRAS wild-type protein vs GDP-bound KRAS wild-type protein
[3] = target: GDP-bound NRAS wild-type protein (Homo sapiens, UniProt P01111); experiment: Binding to NRAS by surface plasmon resonance (SPR), Single Cycle Kinetics; details: SPR, GDP-bound NRAS wild-type protein vs GDP-bound KRAS wild-type protein
[4] = system: human lung cancer strain NCI-H441;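 also: cell proliferation inhibition after four days measured by CellTiter-Glo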

Chain of GDP-bound HRAS wild-type protein (P01112 whole entry): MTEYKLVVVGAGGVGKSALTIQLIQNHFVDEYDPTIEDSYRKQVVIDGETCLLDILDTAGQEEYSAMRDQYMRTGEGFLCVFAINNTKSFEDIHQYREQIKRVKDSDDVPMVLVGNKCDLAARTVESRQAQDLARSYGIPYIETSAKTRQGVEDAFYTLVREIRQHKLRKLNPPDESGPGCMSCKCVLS
Chain of GDP-bound NRAS wild-type protein (P01111 whole entry): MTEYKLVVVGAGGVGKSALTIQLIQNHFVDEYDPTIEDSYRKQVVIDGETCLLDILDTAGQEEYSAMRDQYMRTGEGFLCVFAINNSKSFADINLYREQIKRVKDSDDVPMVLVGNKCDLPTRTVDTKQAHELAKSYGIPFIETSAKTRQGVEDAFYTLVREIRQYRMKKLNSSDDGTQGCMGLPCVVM
Chain of GDP-bound KRAS wild-type protein (P01116 whole entry): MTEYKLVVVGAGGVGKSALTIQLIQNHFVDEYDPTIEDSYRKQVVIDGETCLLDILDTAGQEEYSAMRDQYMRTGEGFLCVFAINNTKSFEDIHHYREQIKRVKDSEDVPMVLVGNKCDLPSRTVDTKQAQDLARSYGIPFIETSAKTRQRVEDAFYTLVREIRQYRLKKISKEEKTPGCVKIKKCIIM

Structure (SMILES)	Kd [1] [nM]	HRAS/KRAS (ratio of KD value for HRAS to KD value for KRAS) [2]	NRAS/KRAS (ratio of KD value for NRAS to KD value for KRAS) [3]	IC50 [4] [nM]
CC[C@H](C)[C@@H]1NC(=O)[C@H](CC)N(C)C(=O)C[C@@H](C(=O)N(C)C)N(C)C(=O)[C@H](C2CCCC2)N(C)C(=O)C2(CCC2)NC(=O)[C@@H]2C[C@H](F)CN2C(=O)[C@H](CCc2cc(F)c(C(F)(F)F)c(F)c2)NC(=O)CN(C)C(=O)[C@H](Cc2ccc(C(F)(F)F)cc2)N2CC/C=C\C[C@@H](C2=O)N(C)C(=O)CN(C)C1=O [PP1132, (2S,8S,12S,14S,20S,23S,27S,30S,36S,38Z)-20-cyclopentyl-8-[2-[3,5-difluoro-4-(trifluoromethyl)phenyl]ethyl]-27-ethyl-12-fluoro-N,N,4,19,22,26,32,35-octamethyl-30-[(1S)-1-methylpropyl]-3,6,9,15,18,21,25,28,31,34,42-undecaoxo-2-[[4-(trifluoromethyl)phenyl]methyl]spiro[1,4,7,10,16,19,22,26,29,32,35-undecazatricyclo[34.5.1.0^10,14]dotetracont-38-ene-17,1′-cyclobutane]-23-carboxamide]	0.066	B (a compound having 3 or more and less than 10 is denoted as B)	A (a compound having 10 or more and less than 20 is denoted as A)	86.8
CC[C@H](C)[C@@H]1NC(=O)[C@H](CC)N(C)C(=O)C[C@@H](C(=O)N(C)C)N(C)C(=O)[C@H](C2CCCC2)N(C)C(=O)C2(CCC2)NC(=O)[C@@H]2C[C@@H](C(F)(F)F)CN2C(=O)[C@H](CCc2cc(F)c(C(F)(F)F)c(F)c2)NC(=O)CN(C)C(=O)[C@H](Cc2ccc(C(F)(F)F)cc2)N2CC/C=C\C[C@@H](C2=O)N(C)C(=O)CN(C)C1=O [PP1133, (2S,8S,12R,14S,20S,23S,27S,30S,36S,38Z)-20-cyclopentyl-8-[2-[3,5-difluoro-4-(trifluoromethyl)phenyl]ethyl]-27-ethyl-N,N,4,19,22,26,32,35-octamethyl-30-[(1S)-1-methylpropyl]-3,6,9,15,18,21,25,28,31,34,42-undecaoxo-12-(trifluoromethyl)-2-[[4-(trifluoromethyl)phenyl]methyl]spiro[1,4,7,10,16,19,22,26,29,32,35-undecazatricyclo[34.5.1.0^10,14]dotetracont-38-ene-17,1′-cyclobutane]-23-carboxamide]	0.05	A (a compound having 10 or more and less than 20 is denoted as A)	A (a compound having 10 or more and less than 20 is denoted as A)	16.5
CC[C@H](C)[C@@H]1NC(=O)[C@H](CC)N(C)C(=O)C[C@@H](C(=O)N(C)C)N(C)C(=O)[C@H](C2CCCC2)N(C)C(=O)C2(CCC2)NC(=O)[C@@H]2C[C@H](C)CN2C(=O)[C@H](CCc2cc(F)c(C(F)(F)F)c(F)c2)NC(=O)CN(C)C(=O)[C@H](Cc2ccc(C(F)(F)F)cc2)N2CC/C=C\C[C@@H](C2=O)N(C)C(=O)CN(C)C1=O [PP1134, (2S,8S,12S,14S,20S,23S,27S,30S,36S,38Z)-20-cyclopentyl-8-[2-[3,5-difluoro-4-(trifluoromethyl)phenyl]ethyl]-27-ethyl-N,N,4,12,19,22,26,32,35-nonamethyl-30-[(1S)-1-methylpropyl]-3,6,9,15,18,21,25,28,31,34,42-undecaoxo-2-[[4-(trifluoromethyl)phenyl]methyl]spiro[1,4,7,10,16,19,22,26,29,32,35-undecazatricyclo[34.5.1.0^10,14]dotetracont-38-ene-17,1′-cyclobutane]-23-carboxamide]	0.06	B (a compound having 3 or more and less than 10 is denoted as B)	A (a compound having 10 or more and less than 20 is denoted as A)	20
CC[C@H](C)[C@@H]1NC(=O)[C@H](CC)N(C)C(=O)C[C@@H](C(=O)N(C)C)N(C)C(=O)[C@H](C2CCCC2)N(C)C(=O)C2(CCC2)NC(=O)[C@@H]2CCCN2C(=O)[C@H](CCc2cc(F)c(C(F)(F)F)c(F)c2)NC(=O)CN(C)C(=O)[C@H](Cc2ccc(C(F)(F)F)cc2)N2CC/C=C\C[C@@H](C2=O)N(C)C(=O)CN(C)C1=O [PP1135, (2S,8S,14S,20S,23S,27S,30S,36S,38Z)-20-cyclopentyl-8-[2-[3,5-difluoro-4-(trifluoromethyl)phenyl]ethyl]-27-ethyl-N,N,4,19,22,26,32,35-octamethyl-30-[(1S)-1-methylpropyl]-3,6,9,15,18,21,25,28,31,34,42-undecaoxo-2-[[4-(trifluoromethyl)phenyl]methyl]spiro[1,4,7,10,16,19,22,26,29,32,35-undecazatricyclo[34.5.1.0^10,14]dotetracont-38-ene-17,1′-cyclobutane]-23-carboxamide]	0.094	A (a compound having 10 or more and less than 20 is denoted as A)	A (a compound having 10 or more and less than 20 is denoted as A)	43.9
CC[C@H](C)[C@@H]1NC(=O)[C@H](CC)N(C)C(=O)C[C@@H](C(=O)N(C)C)N(C)C(=O)[C@H](C2CCCC2)N(C)C(=O)C2(CCC2)NC(=O)[C@@H]2CCCCN2C(=O)[C@H](CCc2cc(F)c(C(F)(F)F)c(F)c2)NC(=O)CN(C)C(=O)[C@H](Cc2ccc(C(F)(F)F)cc2)N2CC/C=C\C[C@@H](C2=O)N(C)C(=O)CN(C)C1=O [PP1136, (2S,8S,15S,21S,24S,28S,31S,37S,39Z)-21-cyclopentyl-8-[2-[3,5-difluoro-4-(trifluoromethyl)phenyl]ethyl]-28-ethyl-N,N,4,20,23,27,33,36-octamethyl-31-[(1S)-1-methylpropyl]-3,6,9,16,19,22,26,29,32,35,43-undecaoxo-2-[[4-(trifluoromethyl)phenyl]methyl]spiro[1,4,7,10,17,20,23,27,30,33,36-undecazatricyclo[35.5.1.0^10,1^5]tritetracont-39-ene-18,1′-cyclobutane]-24-carboxamide]	0.14	A (a compound having 10 or more and less than 20 is denoted as A)	A (a compound having 10 or more and less than 20 is denoted as A)	193
CC[C@H](C)[C@@H]1NC(=O)[C@H](CC)N(C)C(=O)C[C@@H](C(=O)N(C)C)N(C)C(=O)[C@H](C2CCCC2)N(C)C(=O)C2(CCC2)NC(=O)[C@@H]2CSCCN2C(=O)[C@H](CCc2cc(F)c(C(F)(F)F)c(F)c2)NC(=O)CN(C)C(=O)[C@H](Cc2ccc(C(F)(F)F)cc2)N2CC/C=C\C[C@@H](C2=O)N(C)C(=O)CN(C)C1=O [PP1137, (2S,8S,15R,21S,24S,28S,31S,37S,39Z)-21-cyclopentyl-8-[2-[3,5-difluoro-4-(trifluoromethyl)phenyl]ethyl]-28-ethyl-N,N,4,20,23,27,33,36-octamethyl-31-[(1S)-1-methylpropyl]-3,6,9,16,19,22,26,29,32,35,43-undecaoxo-2-[[4-(trifluoromethyl)phenyl]methyl]spiro[13-thia-1,4,7,10,17,20,23,27,30,33,36-undecazatricyclo[35.5.1.0^10,1^5]tritetracont-39-ene-18,1′-cyclobutane]-24-carboxamide]	0.11	A (a compound having 10 or more and less than 20 is denoted as A)	AA (a compound having 20 or more is denoted as AA)	142
